Measurements reported in article PMC4503722, “Novel Phenotypic Outcomes Identified for a Public Collection of Approved Drugs from a Publicly Accessible Panel of Assays” (PLoS ONE, 2015).
Read-outs that look alike come from different tables or passages of the source.

Tests used:
[1] = system: HT-29; assay: cells; format: cell-based
[2] = system: HCT116 cells treated with a GSK3β inhibitor; assay: cells; format: cell-based
[3] = system: SW480; assay: cells; format: cell-based
[4] = system: RKO; assay: cells; format: cell-based
[5] = system: ECFC/ADSC co-culture cell nuclei number
[6] = system: SNU-C1; assay: cells; format: cell-based
[7] = system: HCT116; assay: cells; format: cell-based
[8] = system: endothelial tube formation in co-cultures of ECFCs and ADSCs treated with VEGF; assay: cells; format: cell-based, human
[9] = system: Colo320; assay: cells; format: cell-based
[10] = system: DLD-1; assay: cells; format: cell-based
[11] = system: HeLa cells; assay: cells; format: cell-based;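 on Hela CellCycMod PI 4N summarized IC50: value tracks stimulation of 4N DNA content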

Structure (SMILES) | Basal_Viability ATP HT-29 IC50/EC50 [1] | GSK3b inh pretreated_Viability ATP HCT116 IC50/EC50 [2] | Basal_Viability ATP SW480 IC50/EC50 [3] | Basal_Viability ATP RKO IC50/EC50 [4] | VEGF_ADSC\ECFC Angio Hoechst NucArea IC50/EC50 [5] | Basal_Viability ATP SNU-C1 IC50/EC50 [6] | Basal_Viability ATP HCT116 IC50/EC50 [7] | VEGF_ADSC\ECFC Angio CD31 TubeArea IC50/EC50 [8] | Basal_Viability ATP Colo 320 IC50/EC50 [9] | Basal_Viability ATP DLD-1 IC50/EC50 [10] | Hela CellCycMod PI 2N IC50/EC50 [11] | Hela CellCycMod PI 4N IC50/EC50 [11] | Hela CellCycMod PI Cell Number IC50/EC50 [11] | Hela CellCycMod PI MI IC50/EC50 [11] | Hela CellCycMod PI S Phase IC50/EC50 [11] | other results
CCCCC(CC)CN=C(N)NC(N)=NCCCCCCN=C(N)NC(N)=NCC(CC)CCCC (stereo not drawn) [NCGC00178352-06] |  |  |  |  |  |  |  |  |  |  |  |  |  |  |  | IC50/EC50, Basal_Viability ATP HT-29 (assay number 28) [1]: 30.2 nM; IC50/EC50, GSK3b inh pretreated_Viability ATP HCT116 (assay number 26) [2]: 396.3 nM; IC50/EC50, Basal_Viability ATP SW480 (assay number 24) [3]: 332.7 nM; IC50/EC50, Basal_Viability ATP RKO (assay number 29) [4]: 222.8 nM; IC50/EC50, VEGF_ADSC\ECFC Angio Hoechst NucArea (assay number 3) [5]: > 10000 nM; IC50/EC50, Basal_Viability ATP SNU-C1 (assay number 30) [6]: 94.1 nM; IC50/EC50, Basal_Viability ATP HCT116 (assay number 25) [7]: 709.6 nM; IC50/EC50, VEGF_ADSC\ECFC Angio CD31 TubeArea (assay number 2) [8]: 407.8 nM; IC50/EC50, Basal_Viability ATP Colo 320 (assay number 27) [9]: 4.1 nM; IC50/EC50, Basal_Viability ATP DLD-1 (assay number 23) [10]: 19.7 nM; IC50/EC50, Hela CellCycMod PI 2N (assay number 14) [11]: > 10000 nM; IC50/EC50, Hela CellCycMod PI 4N (assay number 16) [11]: > 10000 nM; IC50/EC50, Hela CellCycMod PI Cell Number (assay number 18) [11]: 18.6 nM; IC50/EC50, Hela CellCycMod PI MI (assay number 17) [11]: > 10000 nM; IC50/EC50, Hela CellCycMod PI S Phase (assay number 15) [11]: > 10000 nM
O=C1C2CC=CCC2C(=O)N1SC(Cl)(Cl)Cl (stereo not drawn) [NCGC00091034-10] |  |  |  |  |  |  |  |  |  |  |  |  |  |  |  | IC50 ([1]; assay number 28, basal, read-out: Basal_Viability ATP HT-29 summarized IC50): 500 nM; IC50 ([2]; assay number 26, GSK3b inhibitor pretreated, read-out: GSK3b inh pretreated_Viability ATP HCT116 summarized IC50): 2210 nM; IC50 ([3]; assay number 24, basal, read-out: Basal_Viability ATP SW480 summarized IC50): 78.8 nM; IC50 ([4]; assay number 29, basal, read-out: Basal_Viability ATP RKO summarized IC50): 402 nM; IC50 ([5]; read-out: VEGF_ADSC\ECFC Angio Hoechst NucArea summarized IC50): > 10000 nM; IC50 ([6]; assay number 30, basal, read-out: Basal_Viability ATP SNU-C1 summarized IC50): 903 nM; IC50 ([7]; assay number 25, basal, read-out: Basal_Viability ATP HCT116 summarized IC50): 1760 nM; IC50 ([8]; read-out: VEGF_ADSC\ECFC Angio CD31 TubeArea summarized IC50): > 10000 nM; IC50 ([9]; assay number 27, basal, read-out: Basal_Viability ATP Colo 320 summarized IC50): 306 nM; IC50 ([10]; assay number 23, basal, read-out: Basal_Viability ATP DLD-1 summarized IC50): 348 nM; IC50 ([11]; assay number 14, 2N, read-out: Hela CellCycMod PI 2N summarized IC50): > 10000 nM; IC50 ([11]; assay number 15, S phase, read-out: Hela CellCycMod PI S Phase summarized IC50): > 10000 nM; IC50 ([11]; assay number 16, 4N, read-out: Hela CellCycMod PI 4N summarized IC50): > 10000 nM; IC50 ([11]; assay number 17, MI, read-out: Hela CellCycMod PI MI summarized IC50): 6140 nM; IC50 ([11]; assay number 18, cell number, read-out: Hela CellCycMod PI Cell Number summarized IC50): 1780 nM
CCc1oc2ccccc2c1C(=O)c1cc(I)c(O)c(I)c1 [NCGC00160408-03] | 1 nM | 1 nM | 1 nM | 3 nM | > 10000 nM | 1 nM | 3 nM | 5854.7 nM | 3 nM | 3 nM | > 10000 nM | > 10000 nM | > 10000 nM | > 10000 nM | > 10000 nM | 
CO[C@@]12[C@H](COC(N)=O)C3=C(C(=O)C(C)=C(N)C3=O)N1C[C@@H]1N[C@@H]12 [NCGC00163468-05] | 2570.5 nM | > 20000 nM | 12054.8 nM | 995.3 nM | 5961 nM | 8127.2 nM | 13626.1 nM | 101.9 nM | 12554.6 nM | 5631.8 nM | 13.3 nM | > 10000 nM | 77.33 nM | > 10000 nM | 142.8 nM | 
CC(C)=CCOc1ccc(/C=C/C(=O)c2ccc(OCC=C(C)C)cc2OCC(=O)O)cc1 [NCGC00159481-03] | 5397.3 nM | 3035.1 nM | 2919.3 nM | 5533.5 nM | > 10000 nM | 7442.8 nM | > 6667 nM | > 10000 nM | 1552.7 nM | 5361.4 nM | > 10000 nM | > 10000 nM | > 10000 nM | > 10000 nM | > 10000 nM | 
